PMC5617480 (Oncotarget, 2017)

Assays:
BEL-7404 cells = assay: Senescence induction (SA-β-Gal staining); format: cell-based, human; conditions: BEL-7404, 2.0 μM, 7 d, compared with complexes 4 and 5
Procedure: Platinum(II)-based drugs were widely used in anticancer chemotherapies, therefore, we performed experiments to test the potency of chiral platinum(II) complexes 4–6 for inducing senescence and apoptosis in BEL-7404 cells. […] We next investigated the effect of complexes 4–6 on the induction of apoptosis. BEL-7404 cells were incubated with complexes 4 (10 and 20 μM), 5 (10 and 20 μM) and 6 (5, 10 and 20 μM) for 24 h, respectively, and then these cells staining with PI and Annexin-V-FITC were determined by flow cytometry (Figure 3A and Supplementary Figure 18). […] Cells were treated with complexes 4–6 at 10 μM for 48 h, the cell cycle arrest was determined by using flow cytometry. […]
(§1) Apoptosis analysis c-myc antibody, or anti-β-actin primary antibody and the Apoptosis was detected by flow cytometric analysis corresponding secondary antibody were used to detect of annexin V staining. […] Then, cells were incubated with annexin V-FITC and PI for 1.0 h at Staining for SA-β-Gal activity was carried out room temperature in the dark and immediately analyzed according to Moore and Chen reports. […] The data are presented as biparametric After the long-term incubation with complexes 4–6, the dot plots showing PI red fluorescence vs annexin V-FITC growth medium was aspirated and the BEL-7404 cells green fluorescence. were fixed in 2% formaldehyde/0.2% glutaraldehyde for 15.0 min at room temperature. […]

hTERT and c-myc = assay: Western blot and RT-PCR of hTERT and c-myc in BEL-7404 cells; format: cell-based, human; conditions: BEL-7404, 10 μM, 24 h, compared to complexes 4 and 5
Procedure: To further investigate the mechanism(s) how chiral platinum(II) complexes regulate telomerase activity, two genes (hTERT and c-myc) critically associated with telomerase activation were investigated. BEL-7404 cells were treated with chiral platinum(II) complexes 4–6 at 10 μM for 24 h, and then western blot and RT-PCR were performed to exam the expression of hTERT and c-myc at mRNA and protein levels. […] We further generated a GFP reporter system linked with c-myc or hTRET promotor which bears G4 DNA sequence. The reporter plasmids were transfected into BEL-7404 cells, and then the cells were treated with 10 μM chiral platinum(II) complexes for 24 h.
as §1

Substance: cis-[PtCl2(S-(–)-FOA)] [complex 6]
- level of senescence (β-galactosidase stain) (BEL-7404 cells): higher level of senescence
- expression of hTERT and c-myc at mRNA and protein levels (hTERT and c-myc): significantly attenuate
